{
  "source": "patent US20070197654A1",
  "about": "“COMBINATION OF A CB1 RECEPTOR ANTAGONIST AND OF A PRODUCT WHICH ACTIVATES DOPAMINERGIC NEUROTRANSMISSION IN THE BRAIN, THE PHARMACEUTICAL COMPOSITIONS COMPRISING THEM AND THEIR USE IN THE TREATMENT OF PARKINSON'S DISEASE” (AVENTIS PHARMA S.A., priority 2001, published 2007)",
  "type_in_all_cases": "in vivo",
  "key": {"[1]": {"tested_on": "Reserpine-treated rats", "experiment": "Reserpine-induced akinesia in the rat: locomotor activity, CB1 antagonist ip combined with quinpirole", "conditions": "CB1 antagonist 1 mg/kg i.p., locomotion recorded 1 hour", "method": "(§1) The synergistic effect of the combination of one or more products which activate dopaminergic neurotransmission in the brain and of one or more CB1 antagonists in the treatment of Parkinson's disease was determined in a model of akinesia induced by reserpine in the rat according to the following protocol:\n(§2) Male Sprague-Dawley rats were treated with reserpine administered subcutaneously at a dose of 3 mg/kg (1 ml/kg) in order to induce akinesia in the animal. 18 hours after this treatment, the locomotor activity of these animals was measured and recorded using an automatic system (Videotrack, France). The locomotion, expressed in centimeters, is estimated by a mean overall distance covered during this period (n=11-38 rats per group). The statistical analysis is carried out by variance analysis and a post-hoc comparison (if appropriate) using a Mann-Whitney or Dunnett test. A significant effect is recorded for p<0.05.\n(§3) The results for the ip administration of the CB1 antagonist (Table 1) are expressed as percentage of increase with respect to the activity of quinpirole and as percentage of decrease with respect to the activity of a very strong dose of levodopa.\nThe combination of a CB1 receptor antagonist and of a D2 dopaminergic agonist (quinpirole) is produced in the following way: […]"}, "[2]": {"tested_on": "Reserpine-treated rats", "experiment": "Reserpine-treated rat: locomotor activity, CB1 antagonist po combined with strong dose of C1-APB (SKF 82958)", "conditions": "locomotion recorded 1 hour", "method": "as §1, §2\n(§4) The studies by the oral route are carried out in a hydrophobic formulation solvent Labrafil/Labrasol (40/60%, w/w). These products are administered (in a volume of 1 ml/kg) one hour before the dopaminergic agonist. The recording of the locomotor activity begins 5 min after the intraperitoneal injection of the dopaminergic agonist and lasts 1 hour. The D1 dopaminergic agonist is 0.3 mg/kg C1-APB. The D2 dopaminergic agonist is 0.1 mg/kg quinpirole.\n(§5) The results for the po administration of the CB1 antagonist at three different doses (1, 3 and 10 mg/kg/po) (Table 2) are expressed as percentage of increase with respect to the activity of quinpirole and a percentage of decrease with respect to the activity of a strong dose of C1-APB (SKF 82958)."}, "[3]": {"tested_on": "Reserpine-treated rats", "experiment": "Reserpine-induced akinesia in the rat: locomotor activity, CB1 antagonist po combined with quinpirole", "conditions": "locomotion recorded 1 hour", "method": "as §1, §2, §4, §5"}, "[4]": {"tested_on": "Reserpine-treated rats", "experiment": "Reserpine-treated rat, dyskinesia model: locomotor activity, CB1 antagonist ip combined with strong dose of levodopa", "conditions": "CB1 antagonist 1 mg/kg i.p.; levodopa 120 mg/kg + benserazide 50 mg/kg i.p.; locomotion recorded 2.5 hours", "method": "as §1, §2, §3\nThe combination of the CB1 receptor antagonist and of a strong dose of levodopa (dyskinesia model) is produced in the following way: […]"}},
  "note": "Marks after values point to notes of the source that are not given here.",
  "data": [
    {"compound": "Cc1c(C(=O)NN2CCCCC2)nn(-c2ccc(Cl)cc2Cl)c1-c1ccc(Cl)cc1.Cl", "note": "[SR141716A, N-(piperidin-1-yl)-5-(4-chlorophenyl)-1-(2,4-dichlorophenyl)-4-methyl-1H-pyrazole-3-carboxamide hydrochloride]", "values": [
      {"measurement": "Combination with quinpirole (62.5 μg/kg ip): percentage of increase with respect to the activity of quinpirole", "setting": "[1]", "result": "+116%***"},
      {"measurement": "Combination with C1-APB (0.3 mg/kg ip): percentage of decrease with respect to the activity of a strong dose of C1-APB", "setting": "[2]; CB1 antagonist 1 mg/kg po one hour before C1-APB", "result": "−32", "unit": "% NS"},
      {"measurement": "Combination with C1-APB (0.3 mg/kg ip): percentage of decrease with respect to the activity of a strong dose of C1-APB", "setting": "[2]; CB1 antagonist 3 mg/kg po one hour before C1-APB", "result": "−58", "unit": "%*"},
      {"measurement": "Combination with C1-APB (0.3 mg/kg ip): percentage of decrease with respect to the activity of a strong dose of C1-APB", "setting": "[2]; CB1 antagonist 10 mg/kg po one hour before C1-APB", "result": "−82", "unit": "%**"},
      {"measurement": "Combination with quinpirole (0.1 mg/kg ip): percentage of increase with respect to the activity of quinpirole", "setting": "[3]; CB1 antagonist 1 mg/kg po one hour before quinpirole", "result": "+57%* NS"},
      {"measurement": "Combination with quinpirole (0.1 mg/kg ip): percentage of increase with respect to the activity of quinpirole", "setting": "[3]; CB1 antagonist 3 mg/kg po one hour before quinpirole", "result": "+121%**"},
      {"measurement": "Combination with quinpirole (0.1 mg/kg ip): percentage of increase with respect to the activity of quinpirole", "setting": "[3]; CB1 antagonist 10 mg/kg po one hour before quinpirole", "result": "+87%**"},
      {"measurement": "Combination with levodopa (120 mg/kg ip): percentage of decrease with respect to the activity of a very strong dose of levodopa", "setting": "[4]", "result": "−61", "unit": "%*"}
    ]}
  ]
}
